Results reported in PubChem BioAssay AID1963449 (Molecular Pharmacology Branch, DTP, NCI, 2024).

Tested on: 596521-263-R-J1-PDC complex spheroid growth
Assay: Anticancer human tumor 596521-263-R-J1-PDC patient-derived soft tissue sarcoma cell line growth inhibition [Asc]
Conditions: for IC50: curve of first compound; for viability, T/C: stronger effect = lower value
Procedure, shortened: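 Concentration series start at each agent's clinical Cmax, or at 10 microM when none is established, and drop in half-log steps; agents are applied alone or together to complex spheroids built with HUVEC and hMSC.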

[1] = second compound 0.0316 µM, first compound 0.0316 µM
[2] = second compound 0.0316 µM, first compound 0.1 µM
[3] = second compound 0.0316 µM, first compound 0.316 µM
[4] = second compound 0.0316 µM, first compound 1 µM
[5] = second compound 0.1 µM, first compound 0.0316 µM
[6] = second compound 0.1 µM, first compound 0.1 µM
[7] = second compound 0.1 µM, first compound 0.316 µM
[8] = second compound 0.1 µM, first compound 1 µM
[9] = second compound 0.316 µM, first compound 0.0316 µM
[10] = second compound 0.316 µM, first compound 0.1 µM
[11] = second compound 0.316 µM, first compound 0.316 µM
[12] = second compound 0.316 µM, first compound 1 µM
[13] = second compound 1 µM, first compound 0.0316 µM
[14] = second compound 1 µM, first compound 0.1 µM
[15] = second compound 1 µM, first compound 0.316 µM
[16] = second compound 1 µM, first compound 1 µM
[17] = second compound 3.16 µM, first compound 0.0316 µM
[18] = second compound 3.16 µM, first compound 0.1 µM
[19] = second compound 3.16 µM, first compound 0.316 µM
[20] = second compound 3.16 µM, first compound 1 µM
[21] = second compound 10 µM, first compound 0.0316 µM
[22] = second compound 10 µM, first compound 0.1 µM
[23] = second compound 10 µM, first compound 0.316 µM
[24] = second compound 10 µM, first compound 1 µM
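Further: spheroids exposed to compounds for 7 days.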

With `C#Cc1c(F)ccc2cc(O)cc(-c3ncc4c(N5CC6CCC(C5)N6)nc(OCC56CCCN5CC(F)C6)nc4c3F)c12` (centres undefined) + Cc1c(S(C)(=O)=O)c(-c2cc(F)cc(N3CCN(c4ccc(NS(=O)(=O)c5ccc(NC(CCN6CCC(C(=O)OCCCP(=O)(O)O)CC6)CSc6ccccc6)c(S(=O)(=O)C(F)(F)F)c5)cc4)CC3)c2)c(-c2ccc(Cl)cc2)n1C(C)C the IC50 (second compound 0.0316 µM) was > 10000 nM, the IC50 (second compound 0.1 µM) was > 10000 nM and the IC50 (second compound 0.316 µM) was > 10000 nM. The IC50 (second compound 1 µM) was > 10000 nM, the IC50 (second compound 3.16 µM) was > 10000 nM and the IC50 (second compound 10 µM) was 1680 nM. It also gave a viability, T/C [1] of 84.7%, a viability, T/C [2] of 89.1% and a viability, T/C [3] of 91%. For the same compound, the viability, T/C [4] was 98.1%, the viability, T/C (second compound 0.0316 µM, first compound 3.16 µM) was 111% and the viability, T/C (second compound 0.0316 µM, first compound 10 µM) was 85.7%. It also gave a viability, T/C [5] of 85.9%, a viability, T/C [6] of 107% and a viability, T/C [7] of 107%. The viability, T/C [8] was 95.5%, the viability, T/C (second compound 0.1 µM, first compound 3.16 µM) was 95.6% and the viability, T/C (second compound 0.1 µM, first compound 10 µM) was 87.8%. It also gave a viability, T/C [9] of 82.2%, a viability, T/C [10] of 81.8% and a viability, T/C [11] of 76.9%. The viability, T/C [12] was 83.6%, the viability, T/C (second compound 0.316 µM, first compound 3.16 µM) was 100% and the viability, T/C (second compound 0.316 µM, first compound 10 µM) was 68.4%. The viability, T/C [13] was 83.7%, the viability, T/C [14] was 84.2% and the viability, T/C [15] was 79.1%. For the same compound, the viability, T/C [16] was 83.4%, the viability, T/C (second compound 1 µM, first compound 3.16 µM) was 69.3% and the viability, T/C (second compound 1 µM, first compound 10 µM) was 60.5%. For the same compound, the viability, T/C [17] was 59.4%, the viability, T/C [18] was 65.3% and the viability, T/C [19] was 61%. It also gave a viability, T/C [20] of 57.1%, a viability, T/C (second compound 3.16 µM, first compound 3.16 µM) of 60.4% and a viability, T/C (second compound 3.16 µM, first compound 10 µM) of 42.6%. For the same compound, the viability, T/C [21] was 48.1%, the viability, T/C [22] was 47.8% and the viability, T/C [23] was 55.1%. The viability, T/C [24] was 60.7%, the viability, T/C (second compound 10 µM, first compound 3.16 µM) was 43.7% and the viability, T/C (second compound 10 µM, first compound 10 µM) was 37.2%.

For `CNC(C)C(=O)NC1CN(S(=O)(=O)c2cccc(S(=O)(=O)N3CCC4CCC(C(=O)NC(c5ccccc5)c5ccccc5)N4C(=O)C(NC(=O)C(C)NC)C3)c2)CCC2CCC(C(=O)NC(c3ccccc3)c3ccccc3)N2C1=O` (centres undefined) + Cc1c(S(C)(=O)=O)c(-c2cc(F)cc(N3CCN(c4ccc(NS(=O)(=O)c5ccc(NC(CCN6CCC(C(=O)OCCCP(=O)(O)O)CC6)CSc6ccccc6)c(S(=O)(=O)C(F)(F)F)c5)cc4)CC3)c2)c(-c2ccc(Cl)cc2)n1C(C)C, the IC50 (second compound 0.0316 µM) was > 1000 nM, the IC50 (second compound 0.1 µM) was > 1000 nM and the IC50 (second compound 0.316 µM) was > 1000 nM. For the same compound, the IC50 (second compound 1 µM) was > 1000 nM, the IC50 (second compound 3.16 µM) was 23.8 nM and the IC50 (second compound 10 µM) was < 3.16 nM. For the same compound, the viability, T/C (second compound 0.0316 µM, first compound 0.00316 µM) was 84.3%, the viability, T/C (second compound 0.0316 µM, first compound 0.01 µM) was 97.2% and the viability, T/C [1] was 75.4%. The viability, T/C [2] was 84.7%, the viability, T/C [3] was 89.2% and the viability, T/C [4] was 75.2%. It also gave a viability, T/C (second compound 0.1 µM, first compound 0.00316 µM) of 86.1%, a viability, T/C (second compound 0.1 µM, first compound 0.01 µM) of 82.5% and a viability, T/C [5] of 82.1%. It also gave a viability, T/C [6] of 83%, a viability, T/C [7] of 71.9% and a viability, T/C [8] of 69.1%. The viability, T/C (second compound 0.316 µM, first compound 0.00316 µM) was 91.8%, the viability, T/C (second compound 0.316 µM, first compound 0.01 µM) was 89.7% and the viability, T/C [9] was 70.2%. It also gave a viability, T/C [10] of 70.1%, a viability, T/C [11] of 70.9% and a viability, T/C [12] of 56.1%. The viability, T/C (second compound 1 µM, first compound 0.00316 µM) was 74.3%, the viability, T/C (second compound 1 µM, first compound 0.01 µM) was 63.5% and the viability, T/C [13] was 63.9%. It also gave a viability, T/C [14] of 64.3%, a viability, T/C [15] of 59.4% and a viability, T/C [16] of 49.5%. The viability, T/C (second compound 3.16 µM, first compound 0.00316 µM) was 54.1%, the viability, T/C (second compound 3.16 µM, first compound 0.01 µM) was 54% and the viability, T/C [17] was 51.8%. It also gave a viability, T/C [18] of 42.4%, a viability, T/C [19] of 35.6% and a viability, T/C [20] of 32.3%. For the same compound, the viability, T/C (second compound 10 µM, first compound 0.00316 µM) was 44.1%, the viability, T/C (second compound 10 µM, first compound 0.01 µM) was 38.6% and the viability, T/C [21] was 37.1%. For the same compound, the viability, T/C [22] was 34.2%, the viability, T/C [23] was 27% and the viability, T/C [24] was 20.8%.
